Results: US6696495B2, “Treatment of disorders secondary to organic impairments” (Snowden Pharmaceuticals, LLC, priority 1998, dated 2004)
Where two headings read alike, the source gives them in different places.

What was measured:
[1] = system: Severe Atypical Psychosis; assay: Case history 1, Sibutramine Patient No. 97; assay type: in vivo, human; conditions: sibutramine 10 mg orally three times a day, added to carbamazepine, quetiapine, valproic acid; person
[2] = system: Violence and Self-Laceration; assay: Case history 2, Sibutramine Patient No. 3; assay type: in vivo, human
Experimental: 2. Violence and Self-Laceration (Problem No. 1) Sibutramine Patient No. 3
They were started on sibutramine 10 mg orally every morning for their violence, self-abuse and obesity.

Sexual Function and ADD = assay: Case history 4, Sibutramine Patient No. 109; assay type: in vivo, human
[3] = system: Tourette's Disease Tics, Violence, and ADHD; assay: Case history 8, Sibutramine Patient No. 47; assay type: in vivo, human
[4] = system: Asocial Behavior, Violence, and Hyposexuality; assay: Case history 10, Sibutramine Patient No. 54; assay type: in vivo, human
Huntington's Disease = assay: Case history 12, Sibutramine Patient No. 113; assay type: in vivo, human
Retinitis Pigmentosa = assay: Case history 13; assay type: in vivo, human
Excerpt: person one presented with a 40 year history of gradual loss of vision due to RP. For the past 10 years they had been almost completely blind except for well-lit large shapes visible to their right eye. They have been prone to falls with head injury and had developed a focal seizure disorder which had been also associated with “visions”, stammering, and confusion. Multiple treatments had been tried unsuccessfully by other physicians, and they were then referred to me.
One problem was that the effects faded after 4-6 hours and required multiple dosing. […] sleep was aided as well because of the relief from the frightening visual apparitions. The relief from stammering was also unexpected.

[5] = system: Intracerebral Porencephalic Cyst With Oscillopsia; assay: Case history 14, Sibutramine Patient No. 111; assay type: in vivo, human
Excerpt: 14. Intracerebral Porencephalic Cyst With Oscillopsia (Problem No. 5) Sibutramine Patient No. 111
A person suffered a severe head injury in 1976 with a fractured skull, coma, and an intracerebral (porencephalic) cyst caused by the traumatic blockage of their cerebral spinal fluid in their brain. This cyst was repaired surgically with a brain ventricular—jugular vein shunt. This had permitted them to work continuously with concomitant treatment with carbamazepine, valproic acid, and dextroamphetamine until early 1998 when they began to suffer severe attacks of bizarrely altered vision, dizziness, ataxia, and confusion. The attacks progressed to several times per week, lasting 4-24 hours in duration. […] There is no known treatment for these attacks and they were therefore unable to drive or work safely. They were placed on total disability. They were started on 10 mg of sibutramine as needed for these oscillopsia attacks. […] After 2 months at the 5 mg tid dosage, the patient again noted a recurrence of oscillopsia on a 2-3 times weekly basis.

Gulf War Syndrome (GWS) = assay: Case history 19; assay type: in vivo, human; conditions: 10 mg. b.i.d. of sibutramine; veteran
[6] = system: Sick Building Syndrome (SBS); assay: Case history 20; assay type: in vivo, human; conditions: sibutramine 5 mg. t.i.d. Person
Excerpt: 20. Sick Building Syndrome (SBS)
This person began to note an increasing fatigue, poor concentration, rash, and wheezing which they related to exposure to unknown foreigns in the large building in which they worked. They also noted that more than 40 other employees had similar symptoms. […] They were then forced to leave their job in this building with a gradual relief of all symptoms over the next several weeks.

[7] = system: Torticollis, Lingual Dystonia and Dyskinesia; assay: Case history 23; assay type: in vivo, human
[8] = system: Institutionalization Syndrome; assay: Case history 25; assay type: in vivo, human
Excerpt: 25. The Symptoms Due to Institutionalization Syndrome, Also Known As Concentration Camp Syndrome or Survivors Syndrome.
A person was diagnosed with Institutionalization Syndrome and had been in and out of hospitals for 25 years.

Cerebral Palsy = assay: Case history 26; assay type: in vivo, human; conditions: sibutramine 15 mg once a day; person two
Excerpt: 26. The Symptoms Due to Cerebral Palsy
person two had suffered from Cerebral Palsy since birth. Their whole life they had little control of their right arm and hand, and they could not keep their arm straight and down by their side except for short periods of time and using the utmost concentration to do so. Most often they kept their arm in an upright position with their hand near or above their shoulder and their elbow bent. They had no practical use from the arm other than to hold something against their chest. Their hand was also rigid and kept in a loose fist configuration. Fine motor movements of the fingers were impossible for them. […] They had gained control of the right arm and their hand. They are able to hold their hand down by their side for longer periods of time and less concentration required to do so. For the first time in their life they were able to make controlled movements and raise their arm and hand above their head.

[9] = system: Non-Tourette's tics, obsessive-compulsive rituals, and attention deficit hyperactive disorder (ADHD)

In the case of `CC(C)CC(N(C)C)C1(c2ccc(Cl)cc2)CCC1.Cl` (centres unmarked) [sibutramine, N,N-dimethyl-1-[1-(4-chlorophenyl)cyclobutyl]-3-methylbutylamine hydrochloride], the “hallucinations, confusion, paranoia, and anxiety” value [1] is reported as “marked decrease in hallucinations, confusion, paranoia, and anxiety”, the “energy, seizures, violence and self-abuse” value ([2]; sibutramine 10 mg orally every) is reported as “gained new energy, had fewer seizures, and was no longer violent or self-abusive” and the time to response ([2]; sibutramine 10 mg orally every morning) is reported as “less than a week”. For the same compound, the “wear-off of effects after administration” value ([2]; single morning dose 10 mg) was 5 to 6 h, the “concentration and fatigue problems” value (Sexual Function and ADD; sibutramine 5 mg three times daily with continuing valproic acid) was “no longer had the concentration and fatigue problems” and the “sexual interest and ability” value (Sexual Function and ADD; sibutramine 5 mg three times daily, person) was “immediately noted a new-found interest and ability to engage in sex”. The “tics, aggressive outbursts, concentration” value ([3]; human, in vivo) was “rapidly relieved their tics, their aggressive outbursts, and helped their concentration”, the wear-off of effects ([3]; sibutramine 10 mg every morning) was “wore off quickly after noon with a rapid return of all symptoms” and the “tics, violence, concentration problems” value ([3]; sibutramine 10 mg three times daily) was “loss of verbal and motor tics, violence, and concentration problems”. For the same compound, the “speech, compulsive acts, social activity, sexual interest” value ([4]; sibutramine 5 mg tid) was “a decrease in repetitive speech, hissing, and compulsive acts, an increase in social activity and sexual interest, and increased speech generally”, the violence / manageability ([4]; sibutramine 10 mg daily, person) was “again became calm and manageable” and the “ataxic gait with continued treatment” value (Huntington's Disease; gradually, continued sibutramine) was “improvements in their ataxic gait”. For the same compound, the “time to relief after the first capsule” value (Huntington's Disease; sibutramine 5 mg) was no more than 20 min, the “cognitive, emotional, behavioral problems and ataxic gait” value (Huntington's Disease; sibutramine 5 mg three times a day, first capsule, person) was “complete relief of the cognitive, emotional, and behavioral problems but not with the ataxic gait” and the “time after which effects faded” value (Retinitis Pigmentosa; sibutramine 5 mgs.) was 4 to 6 h. The “visual apparitions (“visions”)” value (Retinitis Pigmentosa; sibutramine 5 mgs. t.i.d.) was “lost the “visions” which had upset them so”, the “organization, alertness, stammering, vision” value (Retinitis Pigmentosa; sibutramine 5 mgs. t.i.d. Person one) was “better organization and alertness, decreased stammering, but also better vision by visual testing” and the oscillopsia attacks ([5]; 10 mg of sibutramine as needed, person) was “appeared to help”. The recurrence of oscillopsia ([5]; after 2 months at 5 mg tid) was 2-3 times weekly, the “oscillopsia attacks in the next four weeks” value ([5]; sibutramine 5 mg three times daily) was “only one such attack” and the oscillopsia attacks ([5]; sibutramine 10 mg tid) was “absence of attacks”. The “pain, cognitive problems, confusion” value (Gulf War Syndrome (GWS)) was “rapidly repaired their pain, cognitive problems, and confusion”, the “cognitive, fatigue and allergic symptoms” value [6] was “rapid relief of the cognitive and fatigue symptoms, but no relief from the allergic symptomatology” and the “symptoms with continued dosing” value ([7]; 15 mg sibutramine every six hours) was “prolonged and sustained relief of their symptoms”. For the same compound, the pain ([7]; sibutramine 15) was “their pain subsided”, the “tremors, mouth opening, arm movement” value ([7]; sibutramine 15) was “their tremors considerably slowed, their mouth was no. longer pulling open as dramatically and their arm was not moving noticeably” and the time to response ([7]; sibutramine 15, person) was no more than 45 min. The “course since treatment began” value ([8]; four months) was “continued improvement of their symptoms”, the “symptoms of Institutionalization Syndrome” value ([8]; sibutramine 15 mg once a day) was “relieved their symptoms within a few minutes” and the “symptoms due to Cerebral Palsy, control of right arm and hand” value (Cerebral Palsy) was “their symptoms due to Cerebral Palsy were relieved”. The “tics and OCD symptoms” value ([9]; sibutramine 5 mg tid, child) was “stopped both the tics and the OCD symptoms, but only for a few hours”, the “effect of missing a single dose” value ([9]; sibutramine 10 mg tid) was “the vocal and motor tics return immediately” and the sleep and appetite ([9]; sibutramine 10 mg tid) was “Sleep and appetite were not affected”. The “tics and OCD symptoms” value ([9]; sibutramine 10 mg tid) was “free of symptoms throughout the day” and the concentration at school ([9]; sibutramine 10 mg tid, versus dextroamphetamine, methylphenidate, pemoline) was “better than with any of the analeptics”.
